In one data set the test system is colon. Put plainly: Activity on spontaneous motility of the colon in anesthetized rats. The data set is classed as in vivo, rat. The conditions noted are these: 100 μmol/kg i.p. As to the method: The effects of the test substances on the amplitudes and frequencies of gastric and intestinal contractions were measured by the following experimental method. Determination of the activity of the test substances on the spontaneous motility of the colon in anesthetized rats.
Fasting rats of the SIV 50 strain having a body weight of 180-250 g were anesthetized with a ketamine/xylazine mixture. The animals were tracheotomised and laparotomised. After applying a pylorus ligature, a stomach tube was inserted into the stomach and connected at the other end to a calibrated pressure transducer (Statham element P 23 ID) via a three-way tap. A corresponding tube was inserted rectally 8 to 9 cm into the colon and likewise connected, in the same manner, to a corresponding calibrated pressure transducer. The stomach of the animals was then filled with 2 to 3 ml of water via the tube. The pressure variations in the colon were recorded before and after administration of the test substances using a Watanabe multicorder (MC 641). The differences between the average amplitudes before and after the treatment were determined, and the percent change in the average amplitudes caused by the test substances relative to the values obtained before the treatment is reported in the following Table B.

For data set [1] the following is noted: in vivo, po, 1440 min. As for the experimental part:
Male mice weighing 20-25 g were orally administered maximum doses of 300 mg/kg of the test substance. The animals were carefully observed for toxic symptoms for three hours. All symptoms and deaths over a period of 24 hours after administration were also recorded. Accompanying symptoms were likewise observed and recorded. If death or strongly toxic symptoms was observed, increasingly smaller doses were administered to further mice until toxic symptoms no longer occurred. The lowest dose which caused death or strongly toxic symptoms is given as the minimum toxic dose in the following Table B.

Data set [2] concerns isolated guinea pig ileum. Put plainly: Spasmolytic action in vitro against potassium chloride-induced contraction on the isolated guinea pig ileum. It is filed as cell-based. The conditions noted are these: Cavia porcellus, 50 mmol/l KCl, Tyrode solution, 37° C., read-out: EC50 (approximately 50% reduction in the maximum potassium chloride-induced contraction). The text has this: In a physiological saline solution, isolated organ strips from the gastrointestinal tract such as gastric fundus, gastric antrum, duodenum, ileum, proximal colon and distal colon react to the addition of a spasmogen, for example potassium chloride solution, by contracting. This contraction of the organ strips, induced by the addition of spasmogen, is decreased by addition of the compounds of the invention. The extent of the regression of the contraction is an index of the spasmolytic activity of the compounds. Determination of spasmolytic activity against potassium chloride-induced spasms in isolated guinea pig ileum.
Female guinea pigs of the Wiga strain having a body weight of about 300 g were sacrificed. Organ strips from the ileum about 1 cm long were placed in an organ bath of Tyrode solution at 37° C. and mounted in a conventional apparatus for the isotonic measurement of changes in length. Tyrode solution is an aqueous solution containing 136.9 mmol of NaCl, 2.68 mmol of KCl, 2.31 mmol of CaCl2, 1.0 mmol of MgCl2, 11.9 mmol of NaHCO3, 1.45 mmol of NaH2 PO4 and 5.55 mmol of glucose per liter. After an equilibration phase of one hour, 50 mmol/l of potassium chloride were added to the bath fluid to test the sensitivity of the ileum strips. The strips were then rinsed again with Tyrode solution. 50 mmol/l of potassium chloride were then added to the bath fluid again to induce a contraction of the ileum strip due to spasm. As soon as the contraction of the ileum strip due to spasm has reached a constant maximum value, the test substance was added to the bath fluid, and the decrease in the contraction was recorded and calculated as a % of the constant maximum contraction.
The following table A gives the obtained by the test method described above. The example numbers given in the table for the compounds of formula I correspond to the numbers of the subsequent Preparation Examples. In Table A, the EC50 represents the concentration of the test substance in moles/liter in the bath fluid with which an approximately 50% reduction is achieved in the strength of the maximum spasmodic contraction induced in the ileum strip by potassium chloride.

Usually EC50 stands for the concentration needed to bring the measured effect to its halfway point.

Consider `CC(C)[C@@H]1CC[C@@H](C)C[C@H]1OCCN(C)CCN1CCOCC1` [Example 1, N-[2-((1R,3R,4S)-1-methyl-4-isopropylcyclohex-3-yloxy)ethyl]-N-[2-(morpholin-1-yl)ethyl]-N-methylamine], for which the “Action on spontaneous motility in the colon, % amplitude reduction” value (shortened to “Action … % amplitude reduction”) in the data set on colon came to 55%. Further, the “Minimum toxic dose in the mouse” value in data set [1] is recorded as greater than 300 mg/kg. Also, the EC50 in data set [2] came out at 12 µM.

Take `CC(C)COCCN(C)CCO[C@@H]1C[C@H](C)CC[C@H]1C(C)C` [Example 2, N-[2-((1R,3R,4S)-1-methyl-4-isopropylcyclohex-3-yloxy)ethyl]-N-[2-(2,2-dimethylethoxy)ethyl]-N-methylamine]: the “Action … % amplitude reduction” value in the data set on colon came out at 55%. Further, the “Minimum toxic dose in the mouse” value in data set [1] is given as greater than 300 mg/kg. Also, the EC50 in data set [2] was 2 µM.

For `CN(CCSCC[C@@H]1CC[C@H]2C[C@@H]1C2(C)C)CCN1CCOCC1` [Example 7, N-(2-[2-((1S,2S,5S)-6,6-dimethylbicyclo[3.1.1]hept-2-yl)ethylthio]ethyl)-N-[2-(morpholin-1-yl)ethyl]-N-methylamine], the EC50 in data set [2] stood at 16 µM.

For the compound `CN(CCCCCOCC[C@@H]1CC[C@H]2C[C@@H]1C2(C)C)CCN1CCOCC1` [Example 10, N-(5-[2-((1S,2S,5S)-6,6-dimethylbicyclo[3.1.1]hept-2-yl)ethoxy]pentyl)-N-[2-(morpholin-1-yl)ethyl]-N-methylamine], in data set [2], the EC50 worked out at 30 µM.

As to `CC(C)COCCNCCO[C@@H]1C[C@H](C)CC[C@H]1C(C)C` [Example 16, N-[2-((1R,3R,4S)-1-methyl-4-isopropylcyclohex-3-yloxy)ethyl]-N-[2-(2,2-dimethylethoxy)ethyl]amine], in data set [2], the EC50 turned out to be 4.9 µM. In the case of `COc1cc(CN(C)CCN(C)CCO[C@@H]2C[C@H](C)CC[C@H]2C(C)C)cc(OC)c1OC` [Example 19, N-[2-((1R,3R,4S)-1-methyl-4-isopropylcyclohex-3-yloxy)ethyl]-N-(2-[N'-(3,4,5-trimethoxybenzyl)-N'-methylamino]ethyl)-N-methylamine], the “Action … % amplitude reduction” value in the data set with colon came to 74%. Also, the EC50 in data set [2] was 0.54 µM. For the compound `CC(C)N(CCOCC[C@@H]1CC[C@H]2C[C@@H]1C2(C)C)CCN1CCOCC1` [Example 20], the “Action … % amplitude reduction” value in the data set on colon is given as 69%. In data set [1], the “Minimum toxic dose in the mouse” value is greater than 300 mg/kg. Besides, in data set [2], the EC50 was found to be 7.9 µM. For `COc1ccc(CCN(C)CCN(C)CCOCC[C@@H]2CC[C@H]3C[C@@H]2C3(C)C)cc1OC` [Example 21] the same measures were 62%, 300 mg/kg and 3.6 µM. Consider `CCOCCN(C)CCOCC[C@@H]1CC[C@H]2C[C@@H]1C2(C)C` [Example 22], for which, in the data set with colon, the “Action … % amplitude reduction” value is on record as 85%. For the same compound, in data set [1], the “Minimum toxic dose in the mouse” value came to 100 mg/kg. For the same compound, in data set [2], the EC50 was 8.7 µM.

For `COc1ccc(CN(CCN(C)CCO[C@@H]2C[C@H](C)CC[C@H]2C(C)C)C(C)C)cc1OC` [Example 23], in data set [2], the 50% effective concentration (EC50) was determined as 1.5 µM.

In the case of `CC(C)[C@H]1CC[C@H](C)C[C@@H]1OCCN(C)CCN1CCOCC1` [Example 24], the EC50 in data set [2] amounted to 14 µM. The same measure, in the same setting: under `CC(C)[C@@H]1CC[C@@H](C)C[C@H]1OCCN(C)CCN1CCCC1` [Example 32] stands 20 µM. On the same count and under the same terms, the figure for `CC(C)[C@@H]1CC[C@@H](C)C[C@H]1OCCN(C)CCN1CCN(C)CC1` [Example 34] is 47 µM. On to `CC(C)[C@@H]1CC[C@@H](C)C[C@H]1OCCN(C)CCOCc1ccccc1` [Example 35], for which, in data set [2], the EC50 is 1.9 µM. Turning to `CC(C)[C@@H]1CC[C@@H](C)C[C@H]1OCCN(C)CCCCCCN1CCOCC1` [Example 36], the EC50 in data set [2] worked out at 43 µM.

As for `CN(CCO[C@H]1C(C)(C)[C@@H]2CC[C@@]1(C)C2)CCN1CCOCC1` [Example 37], the EC50 in data set [2] came to 26 µM. As for `CN(CCO[C@@H]1C[C@@H]2CC[C@@]1(C)C2(C)C)CCN1CCOCC1` [Example 38], the EC50 in data set [2] stood at 19 µM. In the case of `CC(C)[C@@H]1CC[C@@H](C)C[C@H]1OCCN(C)CCNCc1ccc(Cl)c(Cl)c1` [Example 44], in data set [2], the EC50 turned out to be 2.4 µM. In the case of `CC(C)[C@@H]1CC[C@@H](C)C[C@H]1OCCN(C)CCN(C)CCc1ccccc1Cl` [Example 46], in data set [2], the EC50 was 4.8 µM.

With `CC(C)[C@@H]1CC[C@@H](C)C[C@H]1OCCN(C)CCN(Cc1ccccc1)Cc1ccccc1` [Example 48], the “Action … % amplitude reduction” value in the data set with colon amounted to 85%. Also, in data set [2], the EC50 worked out at 0.68 µM. For `CC(C)[C@@H]1CC[C@@H](C)C[C@H]1OCCN(C)CCN(C)CCCCc1ccccc1` [Example 50], the EC50 in data set [2] is 1.3 µM.

Values taken from patent US5212173A, “Alkylaminoalkylamine and ether compounds, processes and intermediates for their preparation, and medicaments containing them” (Kali-Chemie Pharma GmbH, priority 1990, dated 1993).
